Results reported in patent US20070053994A1, “Anti-inflammatory treatment” (priority 2003, published 2007).

System: severe psoriasis (person)
Experiment: Case report: treatment of severe psoriasis of hands, arms and feet
Format: in vivo, human
Conditions: effects did not last following long term treatment

SMILES: C[C@]12CCC(=O)C=C1CC[C@@H]1[C@@H]2C(=O)C[C@@]2(C)[C@H]1CC[C@]2(O)C(=O)CO [cortisone]
- effect of earlier treatment on psoriasis (patient history): some effects
